# Results as given in patent EP4562003B1, “NOVEL 7-SUBSTITUTED INDOLE SULFONAMIDE DERIVATIVES” (F. Hoffmann-La Roche AG, priority 2022, dated 2024).
# Target: human GPR17 short isoform (Homo sapiens, UniProt Q13304)
# Test: GPR17 cAMP assay (TR-FRET cAMP quantification, antagonist mode)
# Type: cell-based
# Settings: CHO-K1 cells stably expressing human GPR17 short isoform; EC80 of agonist MDL29,951; forskolin 15µM; IBMX 0.5mM; 30 minutes at room temperature; read-out: hGPR17 cAMP IC50
# Protocol: GPR17 cAMP Assay Protocol:
# CHO-K1 cells stably expressing vector containing untagged human GPR17 short isoform (Roche) were cultured at 37°C / 5% CO2 in DMEM (Dulbecco's Modified Eagle Medium):F-12 (1:1) supplemented with 10% foetal bovine serum and 400 µg/ml Geneticin.
# Changes in intracellular cyclic adenosine monophosphate (cAMP) levels were quantified using the Nano-TRF Detection Assay kit (Roche Diagnostics, Cat. No. 05214386001). This assay allows for direct cAMP quantification in a homogeneous solution. cAMP is detected based on time-resolved fluorescence energy transfer (TR-FRET) and competitive binding of ruthenylated cAMP and endogenous cAMP to an anti-cAMP monoclonal antibody labeled with AlexaFluor-700. The Ruthenium complex serves as the FRET donor and transfers energy to AlexaFluor-700. The FRET signal is inversely proportional to the cAMP concentration.
# CHO-GPR17S cells were detached with Accutase and resuspended in assay buffer consisting of Hank's Balanced Salt Solution (HBSS), 10mM HEPES (4-(2-hydroxyethyl) piperazine-1-ethanesulfonic acid solution) and 0.1% bovine serum albumin (pH 7.4). The cells were seeded in black 384-well plates (Corning) at a density of 10'000 cells / 20µl assay buffer until the addition of compounds.
# Test antagonist compounds were serially diluted in dimethyl sulfoxide (DMSO) and spotted in 384-well plates. The compounds were then diluted in HBSS buffer supplemented with an EC80 concentration of MDL29,951 (3-(2-Carboxy-4,6-dichloroindol-3-yl)propionic acid) (GPR17 agonist) plus 3-Isobutyl-1-methylxanthine (IBMX) (0.5mM final concentration) and added to the cells at room temperature. Forskolin (15µM final concentration) was added 5 minutes after the test compounds and the cells were incubated at room temperature for 30 minutes. The assay was stopped by adding cAMP detection mix (containing detergents for cell lysis) for 90 minutes at room temperature.
# Cellular cAMP was measured using a Paradigm reader (Molecular Devices). The raw data was used to calculate the FRET signal based on the assay's P-factor as per cAMP kit instructions. The data was normalized to the maximal activity of a reference antagonist and dose response curves were fitted to the percent activity of the test compounds using a sigmoidal dose response model (Genedata Screener).
# Results in the hGPR17 cAMP assay are provided for compounds of formula I in Table 1 Table 1: […]
# Sequence of human GPR17 short isoform (Q13304 29-367): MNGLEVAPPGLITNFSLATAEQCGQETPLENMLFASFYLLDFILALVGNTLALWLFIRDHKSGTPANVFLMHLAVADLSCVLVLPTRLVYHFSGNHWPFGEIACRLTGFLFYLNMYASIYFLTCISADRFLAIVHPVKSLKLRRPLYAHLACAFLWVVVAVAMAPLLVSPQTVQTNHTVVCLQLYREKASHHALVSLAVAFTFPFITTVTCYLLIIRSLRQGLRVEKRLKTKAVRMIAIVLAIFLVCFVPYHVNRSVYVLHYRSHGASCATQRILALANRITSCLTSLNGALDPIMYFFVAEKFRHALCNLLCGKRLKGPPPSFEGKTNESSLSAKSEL
row,Structure (SMILES),IC50
1,"COc1nc(NS(=O)(=O)c2c[nH]c3c(-c4ncccn4)c(Cl)ccc23)nc(OC)c1OCC(F)F [Example 1, 6-chloro-N-[5-(2,2-difluoroethoxy)-4,6-dimethoxy-pyrimidin-2-yl]-7-(2-pyrimidyl)-1H-indole-3-sulfonamide]",48 nM
2,"COc1nc(NS(=O)(=O)c2c[nH]c3c(-c4ncccn4)c(Cl)ccc23)nc(OC)c1CC(F)F [Example 3, 6-chloro-N-[5-(2,2-difluoroethyl)-4,6-dimethoxy-pyrimidin-2-yl]-7-(2-pyrimidyl)-1H-indole-3-sulfonamide]",46 nM
3,"COc1nc(NS(=O)(=O)c2c[nH]c3c(-c4nccn4C)cccc23)nc(OC)c1CC(F)F [Example 5, N-[5-(2,2-difluoroethyl)-4,6-dimethoxy-pyrimidin-2-yl]-7-(1-methylimidazol-2-yl)-1H-indole-3-sulfonamide]",26 nM
4,"COc1nc(NS(=O)(=O)c2c[nH]c3c(-c4cccnn4)c(Cl)ccc23)nc(OC)c1CC(F)F [Example 6, 6-chloro-N-[5-(2,2-difluoroethyl)-4,6-dimethoxy-pyrimidin-2-yl]-7-pyridazin-3-yl-1H-indole-3-sulfonamide]",42 nM
5,"COc1nc(NS(=O)(=O)c2c[nH]c3c(-c4cnccn4)c(Cl)ccc23)nc(OC)c1CC(F)F [Example 15, 6-chloro-N-[5-(2,2-difluoroethyl)-4,6-dimethoxy-pyrimidin-2-yl]-7-pyrazin-2-yl-1H-indole-3-sulfonamide]",27 nM
6,"COc1nc(NS(=O)(=O)c2c[nH]c3c(-c4cnccn4)c(Cl)ccc23)nc(OC)c1OCC(F)F [Example 16, 6-chloro-N-[5-(2,2-difluoroethoxy)-4,6-dimethoxy-pyrimidin-2-yl]-7-pyrazin-2-yl-1H-indole-3-sulfonamide]",25 nM
7,"COc1nc(NS(=O)(=O)c2c[nH]c3c(-c4ccccn4)c(Cl)ccc23)nc(OC)c1CC(F)F [Example 18, 6-chloro-N-[5-(2,2-difluoroethyl)-4,6-dimethoxy-pyrimidin-2-yl]-7-(2-pyridyl)-1H-indole-3-sulfonamide]",19 nM
8,"COc1nc(NS(=O)(=O)c2c[nH]c3c(-c4ccccn4)c(Cl)ccc23)nc(OC)c1OCC(F)F [Example 19, 6-chloro-N-[5-(2,2-difluoroethoxy)-4,6-dimethoxy-pyrimidin-2-yl]-7-(2-pyridyl)-1H-indole-3-sulfonamide]",18 nM
9,"COc1nc(NS(=O)(=O)c2c[nH]c3c(-c4cnccn4)c(Cl)ccc23)nc(OC)c1OC(F)F [Example 20, 6-chloro-N-[5-(difluoromethoxy)-4,6-dimethoxy-pyrimidin-2-yl]-7-pyrazin-2-yl-1H-indole-3-sulfonamide]",32 nM
10,"COc1nc(NS(=O)(=O)c2c[nH]c3c(-c4cnccn4)cccc23)nc(OC)c1CC(F)F [Example 25, N-[5-(2,2-difluoroethyl)-4,6-dimethoxy-pyrimidin-2-yl]-7-pyrazin-2-yl-1H-indole-3-sulfonamide]",56 nM
11,"COc1nc(NS(=O)(=O)c2c[nH]c3c(-c4ncccn4)c(F)ccc23)nc(OC)c1OCC(F)F [Example 26, N-[5-(2,2-difluoroethoxy)-4,6-dimethoxy-pyrimidin-2-yl]-6-fluoro-7-(2-pyrimidyl)-1H-indole-3-sulfonamide]",218 nM
12,"COc1nc(NS(=O)(=O)c2c[nH]c3c(-c4ncccn4)c(F)ccc23)nc(OC)c1CC(F)F [Example 27, N-[5-(2,2-difluoroethyl)-4,6-dimethoxy-pyrimidin-2-yl]-6-fluoro-7-(2-pyrimidyl)-1H-indole-3-sulfonamide]",120 nM
13,"COc1nc(NS(=O)(=O)c2c[nH]c3c(-c4ncccn4)c(F)ccc23)nc(OC)c1OCCF [Example 28, 6-fluoro-N-[5-(2-fluoroethoxy)-4,6-dimethoxy-pyrimidin-2-yl]-7-(2-pyrimidyl)-1H-indole-3-sulfonamide]",307 nM

# Continued, values first:
row,IC50,Structure (SMILES)
1,98 nM,"COc1nc(NS(=O)(=O)c2c[nH]c3c(-c4ncco4)c(Cl)ccc23)nc(OC)c1OCC(F)F [Example 2, 6-chloro-N-[5-(2,2-difluoroethoxy)-4,6-dimethoxy-pyrimidin-2-yl]-7-oxazol-2-yl-1H-indole-3-sulfonamide]"
2,44 nM,"COc1nc(NS(=O)(=O)c2c[nH]c3c(-c4cccnn4)c(Cl)ccc23)nc(OC)c1OCC(F)F [Example 4, 6-chloro-N-[5-(2,2-difluoroethoxy)-4,6-dimethoxy-pyrimidin-2-yl]-7-pyridazin-3-yl-1H-indole-3-sulfonamide]"
3,34 nM,"COc1nc(NS(=O)(=O)c2c[nH]c3c(-c4nccn4C)cccc23)nc(OC)c1OCC(F)F [Example 7, N-[5-(2,2-difluoroethoxy)-4,6-dimethoxy-pyrimidin-2-yl]-7-(1-methylimidazol-2-yl)-1H-indole-3-sulfonamide]"
4,39 nM,"COc1nc(NS(=O)(=O)c2c[nH]c3c(-c4nccn4C)c(Cl)ccc23)nc(OC)c1OCC(F)F [Example 8, 6-chloro-N-[5-(2,2-difluoroethoxy)-4,6-dimethoxy-pyrimidin-2-yl]-7-(1-methylimidazol-2-yl)-1H-indole-3-sulfonamide]"
5,69 nM,"COc1nc(NS(=O)(=O)c2c[nH]c3c(-c4nccn4C)c(F)ccc23)nc(OC)c1OCC(F)F [Example 9, N-[5-(2,2-difluoroethoxy)-4,6-dimethoxy-pyrimidin-2-yl]-6-fluoro-7-(1-methylimidazol-2-yl)-1H-indole-3-sulfonamide]"
6,30 nM,"COc1nc(NS(=O)(=O)c2c[nH]c3c(-c4nccn4C)c(F)ccc23)nc(OC)c1CC(F)F [Example 10, N-[5-(2,2-difluoroethyl)-4,6-dimethoxy-pyrimidin-2-yl]-6-fluoro-7-(1-methylimidazol-2-yl)-1H-indole-3-sulfonamide]"
7,50 nM,"COc1nc(NS(=O)(=O)c2c[nH]c3c(-c4cccnn4)cccc23)nc(OC)c1CC(F)F [Example 11, N-[5-(2,2-difluoroethyl)-4,6-dimethoxy-pyrimidin-2-yl]-7-pyridazin-3-yl-1H-indole-3-sulfonamide]"
8,85 nM,"COc1nc(NS(=O)(=O)c2c[nH]c3c(-c4cccnn4)cccc23)nc(OC)c1OCC(F)F [Example 12, N-[5-(2,2-difluoroethoxy)-4,6-dimethoxy-pyrimidin-2-yl]-7-pyridazin-3-yl-1H-indole-3-sulfonamide]"
9,57 nM,"COc1nc(NS(=O)(=O)c2c[nH]c3c(-c4nnccc4C)cccc23)nc(OC)c1OCC(F)F [Example 13, N-[5-(2,2-difluoroethoxy)-4,6-dimethoxy-pyrimidin-2-yl]-7-(4-methylpyridazin-3-yl)-1H-indole-3-sulfonamide]"
10,32 nM,"COc1nc(NS(=O)(=O)c2c[nH]c3c(-c4cocn4)c(Cl)ccc23)nc(OC)c1OCC(F)F [Example 14, 6-chloro-N-[5-(2,2-difluoroethoxy)-4,6-dimethoxy-pyrimidin-2-yl]-7-oxazol-4-yl-1H-indole-3-sulfonamide]"
11,806 nM,"COc1nc(NS(=O)(=O)c2c[nH]c3c(-c4ncccn4)cccc23)nc(OC)c1CC(F)F [Example 17, N-[5-(2,2-difluoroethyl)-4,6-dimethoxy-pyrimidin-2-yl]-7-(2-pyrimidyl)-1H-indole-3-sulfonamide]"
12,40 nM,"COc1nc(NS(=O)(=O)c2c[nH]c3c(-c4cnccn4)c(Cl)ccc23)nc(OC)c1OCCF [Example 21, 6-chloro-N-[5-(2-fluoroethoxy)-4,6-dimethoxy-pyrimidin-2-yl]-7-pyrazin-2-yl-1H-indole-3-sulfonamide]"
13,80 nM,"COc1nc(NS(=O)(=O)c2c[nH]c3c(-c4ncccn4)c(Cl)ccc23)nc(OC)c1OCCF [Example 22, 6-chloro-N-[5-(2-fluoroethoxy)-4,6-dimethoxy-pyrimidin-2-yl]-7-(2-pyrimidyl)-1H-indole-3-sulfonamide]"
14,50 nM,"COc1nc(NS(=O)(=O)c2c[nH]c3c(-c4ncccn4)c(Cl)ccc23)nc(OC)c1OC(F)F [Example 23, 6-chloro-N-[5-(difluoromethoxy)-4,6-dimethoxy-pyrimidin-2-yl]-7-(2-pyrimidyl)-1H-indole-3-sulfonamide]"
15,61 nM,"COc1nc(NS(=O)(=O)c2c[nH]c3c(-c4ncccn4)c(Cl)ccc23)nc(OC)c1C1CC1C#N (centres unmarked) [Example 24, 6-chloro-N-[5-(2-cyanocyclopropyl)-4,6-dimethoxy-pyrimidin-2-yl]-7-(2-pyrimidyl)-1H-indole-3-sulfonamide]"
16,604 nM,"COc1nc(NS(=O)(=O)c2c[nH]c3c(-c4ncccn4)c(F)ccc23)nc(OC)c1OC(F)F [Example 29, N-[5-(difluoromethoxy)-4,6-dimethoxy-pyrimidin-2-yl]-6-fluoro-7-(2-pyrimidyl)-1H-indole-3-sulfonamide]"
